Test results as given in patent US7488733B2, “6-arylamino-5-cyano-4-pyrimidinones as pde9a inhibitors” (Boehringer Ingelheim International GmbH, priority 2003, dated 2009).
pIC50: −log10 of the molar value.

Tests used:
PDE10A = molecular target: T1, PDE10A (Homo sapiens, UniProt Q9Y233); assay: PDE10A inhibition; format: biochemical; details: human isoenzyme
T1 construct: made in house; host or cells: Sf9 insect cells, pFASTBAC baculovirus
From the text: (§1) Recombinant PDE1C (GenBank/EMBL Accession Number: NM_005020, Loughney et al. J. Biol. Chem. 1996 271, 796-806), PDE2A (GenBank/EMBL Accession Number: NM_002599, Rosman et al. Gene 1997 191, 89-95), PDE3B (GenBank/EMBL Accession Number: NM_000922, Miki et al. Genomics 1996, 36, 476-485), PDE4B (GenBank/EMBL Accession Number: NM_002600, Obernolte et al. Gene. 1993, 129, 239-247), PDE5A (GenBank/EMBL Accession Number: NM_001083, Loughney et al. Gene 1998, 216, 139-147), PDE7B (GenBank/EMBL Accession Number: NM_018945, Hetman et al. Proc. Natl. Acad. Sci. U.S.A. 2000, 97, 472-476), PDE8A (GenBank/EMBL Accession Number: AF—056490, Fisher et al. Biochem. Biophys. Res. Commun. […]
(§2) The test substances are dissolved in 100% DMSO and serially diluted to determine their in vitro effect on PDE 9A. […] The plates are then measured for 30 s per well in a Microbeta scintillation counter (Wallac Inc., Atlanta, Ga.). IC50 values are determined from the graphical plot of the substance concentration versus the percentage inhibition.
(§3) The in vitro effect of test substances on recombinant PDE3B, PDE4B, PDE7B, PDE8A, PDE10A and PDE11A is determined in accordance with the assay protocol described above for PDE 9A with the following adaptations: [5′,8-^3H] adenosine 3′,5′-cyclic phosphate (1 μCi/μL; Amersham Pharmacia Biotech., Piscataway, N.J.) is used as substrate. […]

PDE3B = molecular target: T2, PDE3B (Homo sapiens, UniProt Q13370); assay: PDE3B inhibition; format: biochemical; details: human isoenzyme
T2 construct: made in house; host or cells: Sf9 insect cells, pFASTBAC baculovirus
T2 sequence (Q13370 whole entry): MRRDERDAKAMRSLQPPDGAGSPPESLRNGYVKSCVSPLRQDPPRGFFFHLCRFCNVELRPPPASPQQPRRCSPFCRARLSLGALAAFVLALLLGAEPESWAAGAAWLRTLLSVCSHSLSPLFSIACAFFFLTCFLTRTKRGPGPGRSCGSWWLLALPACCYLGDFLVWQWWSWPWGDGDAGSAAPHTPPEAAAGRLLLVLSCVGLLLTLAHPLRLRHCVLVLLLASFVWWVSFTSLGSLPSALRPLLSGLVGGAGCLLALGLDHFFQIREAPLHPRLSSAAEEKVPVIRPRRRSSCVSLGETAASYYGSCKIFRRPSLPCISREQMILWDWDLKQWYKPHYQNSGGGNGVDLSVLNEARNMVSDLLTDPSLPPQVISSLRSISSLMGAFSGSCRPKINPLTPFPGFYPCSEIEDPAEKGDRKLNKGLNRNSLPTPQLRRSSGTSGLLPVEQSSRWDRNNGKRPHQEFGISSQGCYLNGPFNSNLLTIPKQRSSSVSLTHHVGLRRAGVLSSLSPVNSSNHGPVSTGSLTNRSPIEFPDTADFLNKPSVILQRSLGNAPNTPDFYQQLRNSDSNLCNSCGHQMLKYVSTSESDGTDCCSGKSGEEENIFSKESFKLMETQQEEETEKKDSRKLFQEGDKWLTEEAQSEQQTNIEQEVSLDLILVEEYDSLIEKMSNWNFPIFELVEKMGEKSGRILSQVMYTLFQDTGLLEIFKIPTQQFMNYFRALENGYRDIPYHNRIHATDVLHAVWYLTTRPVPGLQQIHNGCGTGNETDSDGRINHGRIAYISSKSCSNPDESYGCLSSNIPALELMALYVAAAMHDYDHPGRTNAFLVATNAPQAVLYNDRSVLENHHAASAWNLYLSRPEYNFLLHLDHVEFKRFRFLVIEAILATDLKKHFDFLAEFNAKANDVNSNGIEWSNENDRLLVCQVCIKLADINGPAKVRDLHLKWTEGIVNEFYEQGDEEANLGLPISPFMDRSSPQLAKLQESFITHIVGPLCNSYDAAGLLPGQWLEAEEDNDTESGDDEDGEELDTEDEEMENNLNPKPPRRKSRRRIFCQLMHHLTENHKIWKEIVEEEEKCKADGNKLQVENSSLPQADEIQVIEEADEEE
From the text: as §1, §2, §3

PDE8A = molecular target: T3, PDE8A (Homo sapiens, UniProt O60658); assay: PDE8A inhibition; format: biochemical; details: human isoenzyme
T3 construct: made in house; host or cells: Sf9 insect cells, pFASTBAC baculovirus
T3 sequence (O60658 117-829 limits assumed): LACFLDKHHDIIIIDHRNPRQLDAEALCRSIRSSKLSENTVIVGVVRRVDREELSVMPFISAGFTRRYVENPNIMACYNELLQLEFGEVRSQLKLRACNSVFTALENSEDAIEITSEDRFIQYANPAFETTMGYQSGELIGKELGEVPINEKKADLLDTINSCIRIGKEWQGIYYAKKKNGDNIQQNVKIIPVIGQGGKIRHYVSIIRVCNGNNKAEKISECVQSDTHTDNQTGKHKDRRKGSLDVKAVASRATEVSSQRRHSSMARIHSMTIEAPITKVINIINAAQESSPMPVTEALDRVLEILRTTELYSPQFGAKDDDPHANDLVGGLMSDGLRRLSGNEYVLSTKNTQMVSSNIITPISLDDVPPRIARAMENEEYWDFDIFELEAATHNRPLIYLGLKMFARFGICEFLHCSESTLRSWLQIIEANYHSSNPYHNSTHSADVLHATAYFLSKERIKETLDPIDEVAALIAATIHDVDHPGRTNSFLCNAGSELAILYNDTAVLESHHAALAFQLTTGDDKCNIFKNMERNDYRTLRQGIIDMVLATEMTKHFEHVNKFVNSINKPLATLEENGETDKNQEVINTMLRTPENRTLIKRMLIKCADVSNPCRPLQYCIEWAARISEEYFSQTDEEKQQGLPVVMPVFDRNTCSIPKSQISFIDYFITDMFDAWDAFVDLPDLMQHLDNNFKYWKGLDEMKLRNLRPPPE
From the text: as §1, §2, §3

PDE4B = PDE4B (Homo sapiens, UniProt Q07343); assay: PDE4B inhibition; format: biochemical; details: human isoenzyme
Chain of PDE4B (Q07343 212-736 limits assumed): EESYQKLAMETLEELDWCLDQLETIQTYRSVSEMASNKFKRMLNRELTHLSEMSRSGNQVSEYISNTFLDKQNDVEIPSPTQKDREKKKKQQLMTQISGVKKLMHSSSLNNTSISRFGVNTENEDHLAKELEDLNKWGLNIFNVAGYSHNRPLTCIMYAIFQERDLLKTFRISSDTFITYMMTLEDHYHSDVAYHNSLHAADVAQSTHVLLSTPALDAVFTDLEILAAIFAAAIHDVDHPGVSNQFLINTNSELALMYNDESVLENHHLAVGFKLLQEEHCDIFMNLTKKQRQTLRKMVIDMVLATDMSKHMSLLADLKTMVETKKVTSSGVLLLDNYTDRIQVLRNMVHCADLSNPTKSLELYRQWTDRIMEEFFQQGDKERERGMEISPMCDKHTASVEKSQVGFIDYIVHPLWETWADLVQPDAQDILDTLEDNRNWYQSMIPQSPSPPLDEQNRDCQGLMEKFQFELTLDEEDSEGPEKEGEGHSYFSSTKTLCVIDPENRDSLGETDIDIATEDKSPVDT
From the text: as §1, §2, §3

PDE2A = molecular target: T4, PDE2A (Homo sapiens, UniProt O00408); assay: PDE2A inhibition; format: biochemical; details: human isoenzyme
T4 construct: made in house; host or cells: Sf9 insect cells, pFASTBAC baculovirus
T4 sequence (O00408 whole entry): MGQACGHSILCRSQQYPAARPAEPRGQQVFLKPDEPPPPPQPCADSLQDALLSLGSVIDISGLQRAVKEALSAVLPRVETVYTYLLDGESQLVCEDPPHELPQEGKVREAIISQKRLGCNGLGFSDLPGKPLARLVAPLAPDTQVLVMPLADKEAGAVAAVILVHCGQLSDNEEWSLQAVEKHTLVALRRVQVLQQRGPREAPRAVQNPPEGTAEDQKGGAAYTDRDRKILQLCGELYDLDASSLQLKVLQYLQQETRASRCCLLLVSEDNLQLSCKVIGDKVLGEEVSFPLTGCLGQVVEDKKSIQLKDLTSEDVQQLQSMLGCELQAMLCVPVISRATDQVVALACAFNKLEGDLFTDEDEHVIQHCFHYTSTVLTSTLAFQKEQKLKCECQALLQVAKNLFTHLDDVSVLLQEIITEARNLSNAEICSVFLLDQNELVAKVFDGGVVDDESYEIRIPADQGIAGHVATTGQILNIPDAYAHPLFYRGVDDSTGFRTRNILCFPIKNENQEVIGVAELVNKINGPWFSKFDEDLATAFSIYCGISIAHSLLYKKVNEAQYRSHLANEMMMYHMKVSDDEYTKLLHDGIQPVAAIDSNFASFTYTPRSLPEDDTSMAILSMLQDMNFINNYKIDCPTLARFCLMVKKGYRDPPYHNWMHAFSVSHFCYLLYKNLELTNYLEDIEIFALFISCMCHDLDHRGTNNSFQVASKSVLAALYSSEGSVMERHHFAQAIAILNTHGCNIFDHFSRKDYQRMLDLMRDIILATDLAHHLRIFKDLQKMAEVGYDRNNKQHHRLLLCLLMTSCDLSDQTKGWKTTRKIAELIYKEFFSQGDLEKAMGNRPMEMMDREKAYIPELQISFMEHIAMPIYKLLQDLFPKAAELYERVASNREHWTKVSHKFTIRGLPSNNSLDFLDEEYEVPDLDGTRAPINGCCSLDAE
From the text: as §1, §2, §3

PDE5A = molecular target: T5, PDE5A (Homo sapiens, UniProt O76074); assay: PDE5A inhibition; format: biochemical; details: human isoenzyme
T5 construct: made in house; host or cells: Sf9 insect cells, pFASTBAC baculovirus
From the text: as §1, §2, §3

PDE7A = molecular target: T6, PDE7A (Homo sapiens, UniProt Q9NP56); assay: PDE7A inhibition; format: biochemical; details: human isoenzyme
T6 construct: made in house; host or cells: Sf9 insect cells, pFASTBAC baculovirus

PDE1C = molecular target: T7, PDE1C (Homo sapiens, UniProt Q14123); assay: PDE1C inhibition; format: biochemical; details: human isoenzyme
T7 construct: made in house; host or cells: Sf9 insect cells, pFASTBAC baculovirus
From the text: as §1, §2, §3

PDE9A [1] = molecular target: T8, PDE9A (Homo sapiens, UniProt O76083); details: concentrations of up to 100 μM; cited from earlier work
T8 sequence (O76083 whole entry): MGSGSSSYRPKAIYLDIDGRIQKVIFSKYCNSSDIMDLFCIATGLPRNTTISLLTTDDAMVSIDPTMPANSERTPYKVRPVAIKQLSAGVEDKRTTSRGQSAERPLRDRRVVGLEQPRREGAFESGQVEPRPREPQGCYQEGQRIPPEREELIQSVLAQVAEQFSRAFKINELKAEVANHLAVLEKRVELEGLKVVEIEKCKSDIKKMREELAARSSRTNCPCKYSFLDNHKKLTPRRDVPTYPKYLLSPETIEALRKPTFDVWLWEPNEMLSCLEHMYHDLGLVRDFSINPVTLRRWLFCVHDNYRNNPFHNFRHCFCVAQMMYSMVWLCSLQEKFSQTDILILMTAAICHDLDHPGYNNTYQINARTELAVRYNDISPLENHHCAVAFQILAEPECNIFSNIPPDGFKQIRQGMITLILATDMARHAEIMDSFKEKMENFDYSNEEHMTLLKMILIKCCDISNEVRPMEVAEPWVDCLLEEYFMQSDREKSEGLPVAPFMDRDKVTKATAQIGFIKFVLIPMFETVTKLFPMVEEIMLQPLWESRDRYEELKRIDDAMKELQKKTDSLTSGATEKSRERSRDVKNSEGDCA

PDE9A [2] = molecular target: T8, PDE9A; assay: PDE9A inhibition (scintillation proximity assay); format: biochemical; set-up: made in house; host or cells: Sf9 insect cells, pFASTBAC baculovirus; details: recombinant PDE9A, Table 2; read-out: PDE9A-inhibiting effect IC50
Description: The test substances are dissolved in 100% DMSO and serially diluted to determine their in vitro effect on PDE 9A. […] 2 μL portions of the diluted substance solutions are introduced into the wells of microtiter plates (Isoplate; Wallac Inc., Atlanta, Ga.). Then 50 μL of a dilution of the PDE9A preparation described above are added. The dilution of the PDE9A preparation is chosen so that less than 70% of the substrate is converted during the subsequent incubation (typical dilution: 1:10 000; dilution buffer: 50 mM Tris/HCl pH 7.5, 8.3 mM MgCl2, 1.7 mM EDTA, 0.2% BSA). The substrate, [8-^3H] guanosine 3′,5′-cyclic phosphate (1 μCi/μL; Amersham Pharmacia Biotech., Piscataway, N.J.) is diluted 1:2000 with assay buffer (50 mM Tris/HCl pH 7.5, 8.3 mM MgCl2, 1.7 mM EDTA) to a concentration of 0.0005 μCi/μL. The enzyme reaction is finally started by adding 50 μL (0.025 μCi) of the diluted substrate. […] Immediately thereafter, 25 μL of a suspension containing 18 mg/mL Yttrium Scintillation Proximity Beads (Amersham Pharmacia Biotech., Piscataway, N.J.) are added. The microtiter plates are sealed with a film and left to stand at room temperature for 60 min. The plates are then measured for 30 s per well in a Microbeta scintillation counter (Wallac Inc., Atlanta, Ga.). IC50 values are determined from the graphical plot of the substance concentration versus the percentage inhibition.

Murine PDE9A = molecular target: T9, Murine PDE9A (Mus musculus, UniProt O70628); details: concentrations below 200 μM; cited from earlier work
T9 sequence (O70628 1-534): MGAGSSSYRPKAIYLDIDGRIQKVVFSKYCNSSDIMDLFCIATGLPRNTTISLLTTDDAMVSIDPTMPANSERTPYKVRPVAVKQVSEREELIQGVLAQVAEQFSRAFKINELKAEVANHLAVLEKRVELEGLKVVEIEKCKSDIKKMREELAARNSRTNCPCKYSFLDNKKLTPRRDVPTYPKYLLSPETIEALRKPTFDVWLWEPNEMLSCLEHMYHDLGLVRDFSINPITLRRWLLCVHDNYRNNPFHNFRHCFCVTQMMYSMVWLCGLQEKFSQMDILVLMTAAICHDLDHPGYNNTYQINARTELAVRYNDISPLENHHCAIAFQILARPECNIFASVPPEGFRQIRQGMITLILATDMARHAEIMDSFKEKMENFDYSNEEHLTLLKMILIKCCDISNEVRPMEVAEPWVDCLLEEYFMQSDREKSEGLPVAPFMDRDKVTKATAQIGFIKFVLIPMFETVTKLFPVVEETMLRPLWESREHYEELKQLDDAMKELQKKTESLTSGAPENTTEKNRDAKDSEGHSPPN

T1 sequence (Q9Y233 1-779 isoform Q9Y233-1): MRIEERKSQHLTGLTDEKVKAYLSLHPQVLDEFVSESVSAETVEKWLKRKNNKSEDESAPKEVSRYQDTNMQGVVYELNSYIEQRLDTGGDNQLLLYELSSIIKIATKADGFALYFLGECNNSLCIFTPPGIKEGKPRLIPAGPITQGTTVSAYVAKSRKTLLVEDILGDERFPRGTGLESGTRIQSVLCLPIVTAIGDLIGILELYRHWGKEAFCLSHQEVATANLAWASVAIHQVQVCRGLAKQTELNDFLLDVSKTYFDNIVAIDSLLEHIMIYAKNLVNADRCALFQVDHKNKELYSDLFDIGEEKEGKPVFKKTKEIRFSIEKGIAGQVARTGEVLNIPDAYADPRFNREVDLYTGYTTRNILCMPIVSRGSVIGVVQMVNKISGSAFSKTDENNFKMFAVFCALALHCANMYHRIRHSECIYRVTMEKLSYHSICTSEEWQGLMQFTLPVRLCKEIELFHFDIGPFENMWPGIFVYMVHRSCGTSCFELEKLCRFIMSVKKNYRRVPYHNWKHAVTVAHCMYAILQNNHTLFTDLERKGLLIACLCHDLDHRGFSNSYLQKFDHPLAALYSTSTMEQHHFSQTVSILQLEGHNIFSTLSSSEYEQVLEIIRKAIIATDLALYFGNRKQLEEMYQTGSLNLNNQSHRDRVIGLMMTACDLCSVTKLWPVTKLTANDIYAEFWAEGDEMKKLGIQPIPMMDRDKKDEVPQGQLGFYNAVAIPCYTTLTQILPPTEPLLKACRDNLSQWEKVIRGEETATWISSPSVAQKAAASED

SMILES	inhibition of isolated human PDE9A (PDE9A [1])	pIC50 (PDE9A [2])	further results
Cc1ccncc1Nc1nc(CC2CCCCC2)[nH]c(=O)c1C#N [Example 3, 2-(Cyclohexylmethyl)-4-[(4-methyl-3-pyridinyl)amino]-6-oxo-1,6-dihydro-5-pyrimidinecarbonitrile]	–	–	pIC50 (PDE10A): < 5.40; pIC50 (PDE3B): < 5.40; pIC50 (PDE8A): < 5.40; pIC50 (PDE4B): < 5.40; pIC50 (PDE2A): < 5.40; pIC50 (PDE5A): 5.85; pIC50 (PDE7A): < 5.40; pIC50 (PDE1C): < 5.40
OCCN(CCO)c1nc(N2CCCCC2)c2nc(N(CCO)CCO)nc(N3CCCCC3)c2n1 [dipyridamole]	no inhibition	–	–
CCC(C)Cc1nc(Nc2ccccc2C)c(C#N)c(=O)[nH]1 (stereo not drawn) [Example 14, 2-(2-Methylbutyl)-4-[(2-methylphenyl)amino]-6-oxo-1,6-dihydro-5-pyrimidinecarbonitrile]	–	7.12	–
COc1ccc(C2CNC(=O)C2)cc1OC1CCCC1 (stereo not drawn) [rolipram]	no inhibition	–	–
CCOC(=O)C1=C[C@]2(CC)CCCN3CCc4c(n1c1ccccc41)[C@@H]32 [vinpocetine]	no inhibition	–	–
CC(C)Cn1c(=O)n(C)c(=O)c2[nH]cnc21 [IBMX]	no inhibition	–	inhibition of murine PDE9A (Murine PDE9A): not inhibited
CC(=O)Nc1ccc(-c2c[nH]c(=O)cn2)cc1 [SKF94120]	no inhibition	–	–
Cc1ccc(F)cc1Nc1nc(CC2CCCC2)[nH]c(=O)c1C#N [Example 23]	–	7.06	–
Cc1c(F)cccc1Nc1nc(CC2CCCC2)[nH]c(=O)c1C#N [Example 7, 2-(Cyclopentylmethyl)-4-[(3-fluoro-2-methylphenyl)amino]-6-oxo-1,6-dihydro-5-pyrimidinecarbonitrile]	–	7.27	–
N#Cc1c(Nc2ccc(F)cc2)nc(CC2CCCC2)[nH]c1=O [Example 1, 2-(Cyclopentylmethyl)-4-[(fluorophenyl)amino]6-oxo-1,6-dihydro-5-pyrimidinecarbonitrile]	–	7.12	–
